Laboratory results taken from US10399940B2, “Substituted pyrrolidines and methods of use” (AbbVie S.à.r.l., priority 2016, dated 2019).
Read-outs that look alike come from different tables or passages of the source.

Target: T1, F508delCFTR (Homo sapiens, UniProt P13569, DEL508-508)
T1 construct: expressed in transfected cells; host or cells: CFBE41o- (human lung derived epithelial cell line), doxycycline-inducible expression
Assay: Cell Surface Expression-Horse Radish Peroxidase (CSE-HRP) assay
Type: cell-based
Settings: CFBE41o-F508delCFTR-HRP cells; for Maximum % activity (with co-corrector): with co-corrector (2 μM); for Maximum % activity (with co-corrector) / Maximum % activity (without co-corrector): normalized to on-plate positive control, highest concentration 20 μM
Outline: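 CFBE41o- cells expressed F508delCFTR with HRP in the fourth exofacial loop, induced by 0.5 μg/mL doxycycline for 72 h at 37 °C. Compounds alone or with 2 μM co-corrector ran 18–24 h at 33 °C, 8-point 3-fold from 20 μM. Washed-cell luminol luminescence was normalized to DMSO and positive control, fitted sigmoidally for EC50 (three plates).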

[1] = test compound without co-corrector, 18-24 hours at 33° C., read-out: EC50 (without co-corrector)
[2] = with co-corrector (2 μM of 3-[(2R,4R)-4-({[1-(2,2-difluoro-1,3-benzodioxol-5-yl)cyclopropyl]carbonyl}amino)-7-methoxy-3,4-dihydro-2H-chromen-2-yl]benzoic acid), read-out: EC50 (with co-corrector)

T1 sequence (P13569 with tags, fused parts or gaps DEL508-508): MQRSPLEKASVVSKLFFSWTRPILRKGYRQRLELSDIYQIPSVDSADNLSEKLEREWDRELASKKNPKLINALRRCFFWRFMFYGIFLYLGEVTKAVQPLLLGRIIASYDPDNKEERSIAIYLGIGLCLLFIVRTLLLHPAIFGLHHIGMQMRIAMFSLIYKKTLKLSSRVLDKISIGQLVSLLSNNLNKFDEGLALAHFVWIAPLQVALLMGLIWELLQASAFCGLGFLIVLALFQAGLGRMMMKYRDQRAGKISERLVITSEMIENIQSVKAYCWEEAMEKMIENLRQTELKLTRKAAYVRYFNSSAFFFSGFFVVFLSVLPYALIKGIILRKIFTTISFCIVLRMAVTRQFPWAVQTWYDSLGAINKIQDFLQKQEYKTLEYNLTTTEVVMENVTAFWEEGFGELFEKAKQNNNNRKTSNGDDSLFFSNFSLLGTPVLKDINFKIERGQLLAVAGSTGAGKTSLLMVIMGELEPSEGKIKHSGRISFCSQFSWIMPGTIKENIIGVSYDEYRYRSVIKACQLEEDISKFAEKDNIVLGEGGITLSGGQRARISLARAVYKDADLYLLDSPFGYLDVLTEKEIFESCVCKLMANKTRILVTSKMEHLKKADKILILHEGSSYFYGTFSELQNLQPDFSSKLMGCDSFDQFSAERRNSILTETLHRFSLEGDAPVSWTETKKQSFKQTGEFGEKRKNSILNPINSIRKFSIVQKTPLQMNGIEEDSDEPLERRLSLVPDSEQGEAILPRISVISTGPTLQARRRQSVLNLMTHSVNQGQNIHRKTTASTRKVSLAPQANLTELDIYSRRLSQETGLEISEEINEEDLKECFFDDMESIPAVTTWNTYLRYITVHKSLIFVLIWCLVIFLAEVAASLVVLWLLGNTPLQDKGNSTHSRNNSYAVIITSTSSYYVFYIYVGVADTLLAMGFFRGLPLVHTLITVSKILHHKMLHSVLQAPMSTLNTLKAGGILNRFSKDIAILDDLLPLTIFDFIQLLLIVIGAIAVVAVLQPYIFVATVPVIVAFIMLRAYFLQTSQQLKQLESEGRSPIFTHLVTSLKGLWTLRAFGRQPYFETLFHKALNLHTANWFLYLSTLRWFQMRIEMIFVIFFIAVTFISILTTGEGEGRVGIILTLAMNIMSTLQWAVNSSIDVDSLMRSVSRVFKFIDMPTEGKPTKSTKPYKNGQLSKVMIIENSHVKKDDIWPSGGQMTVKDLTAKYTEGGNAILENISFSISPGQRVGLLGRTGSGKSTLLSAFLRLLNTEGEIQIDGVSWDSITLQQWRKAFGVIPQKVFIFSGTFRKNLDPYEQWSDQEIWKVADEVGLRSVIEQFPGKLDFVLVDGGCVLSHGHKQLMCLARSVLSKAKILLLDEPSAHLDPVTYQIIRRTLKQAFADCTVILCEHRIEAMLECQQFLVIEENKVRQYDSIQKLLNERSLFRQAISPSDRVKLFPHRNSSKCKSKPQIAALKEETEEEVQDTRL

Structure (SMILES)	EC50 [1] [nM]	EC50 [2] [nM]	Maximum % activity (with co-corrector)	Maximum % activity (without co-corrector)
COc1ncc(C2CCC2)cc1CO[C@H]1[C@H](C(C)(C)C)[C@@H](C(=O)O)N(C(=O)OC(C)C)[C@H]1c1ccccc1 [Example 45, (2S,3R,4S,5S)-3-tert-butyl-4-[(5-cyclobutyl-2-methoxypyridin-3-yl)methoxy]-5-phenyl-1-{[(propan-2-yl)oxy]carbonyl}pyrrolidine-2-carboxylic acid]	1000 to 10000	1000 to 10000	+++ (≥350)	++ (≥100 and <200)
COc1ccc(C(C)(C)C)cc1CO[C@H]1[C@H](C(C)(C)C)[C@@H](C(=O)O)N(C(=O)[C@@H]2CCC[C@@H](OC)C2)[C@H]1c1ccccc1 [Example 46, (2S,3R,4S,5S)-3-tert-butyl-4-[(5-tert-butyl-2-methoxyphenyl)methoxy]-1-[(1R,3R)-3-methoxycyclohexane-1-carbonyl]-5-phenylpyrrolidine-2-carboxylic acid]	< 1000	< 1000	+++ (≥350)	+++ (≥200)
COc1ccc(C(C)(C)C)cc1CO[C@H]1[C@H](C(C)(C)C)[C@@H](C(=O)O)N(C(=O)OC(C)C)[C@H]1c1ccccc1 [Example 47, (2S,3R,4S,5S)-3-tert-butyl-4-[(5-tert-butyl-2-methoxyphenyl)methoxy]-5-phenyl-1-{[(propan-2-yl)oxy]carbonyl}pyrrolidine-2-carboxylic acid]	1000 to 10000	1000 to 10000	+++ (≥350)	+++ (≥200)
COc1ncc(C(F)(F)F)cc1CO[C@H]1[C@H](C(C)(C)C)[C@@H](C(=O)O)N(C(=O)C2CCCCC2)[C@H]1c1ccccc1F [Example 48, (2S,3R,4S,5S)-3-tert-butyl-1-(cyclohexanecarbonyl)-5-(2-fluorophenyl)-4-{[2-methoxy-5-(trifluoromethyl)pyridin-3-yl]methoxy}pyrrolidine-2-carboxylic acid]	1000 to 10000	1000 to 10000	+++ (≥350)	++ (≥100 and <200)
COc1ccc(C(F)(F)F)cc1CO[C@H]1[C@H](C(C)(C)C)[C@@H](C(=O)O)N(C(=O)C2CCCCC2)[C@H]1c1ccccc1F [Example 49, (2S,3R,4S,5S)-3-tert-butyl-1-(cyclohexanecarbonyl)-5-(2-fluorophenyl)-4-{[2-methoxy-5-(trifluoromethyl)phenyl]methoxy}pyrrolidine-2-carboxylic acid]	1000 to 10000	1000 to 10000	+++ (≥350)	++ (≥100 and <200)
COc1ccc(C(C)(C)C)cc1CO[C@H]1[C@H](C(C)(C)C)[C@@H](C(=O)O)N(C(=O)C2CCCCC2)[C@H]1c1ccccc1F [Example 50, (2S,3R,4S,5S)-3-tert-butyl-4-[(5-tert-butyl-2-methoxyphenyl)methoxy]-1-(cyclohexanecarbonyl)-5-(2-fluorophenyl)pyrrolidine-2-carboxylic acid]	< 1000	< 1000	+++ (≥350)	+++ (≥200)
COc1ncc(Br)cc1CO[C@H]1[C@H](C(C)(C)C)[C@@H](C(=O)O)N(C(=O)C2CCCCC2)[C@H]1c1ccccc1F [Example 51, (2S,3R,4S,5S)-4-[(5-bromo-2-methoxypyridin-3-yl)methoxy]-3-tert-butyl-1-(cyclohexanecarbonyl)-5-(2-fluorophenyl)pyrrolidine-2-carboxylic acid]	1000 to 10000	1000 to 10000	+++ (≥350)	++ (≥100 and <200)
COc1ncc(-c2ccccc2)cc1CO[C@H]1[C@H](C(C)(C)C)[C@@H](C(=O)O)N(C(=O)C2CCCCC2)[C@H]1c1ccccc1F [Example 52, (2S,3R,4S,5S)-3-tert-butyl-1-(cyclohexanecarbonyl)-5-(2-fluorophenyl)-4-[(2-methoxy-5-phenylpyridin-3-yl)methoxy]pyrrolidine-2-carboxylic acid]	1000 to 10000	1000 to 10000	+++ (≥350)	+ (<100)
COc1ncc(C2CCC2)cc1CO[C@H]1[C@H](C(C)(C)C)[C@@H](C(=O)O)N(C(=O)C2CCCCC2)[C@H]1c1ccccc1 [Example 53, (2S,3R,4S,5S)-3-tert-butyl-4-[(5-cyclobutyl-2-methoxypyridin-3-yl)methoxy]-1-(cyclohexanecarbonyl)-5-phenylpyrrolidine-2-carboxylic acid]	< 1000	< 1000	+++ (≥350)	++ (≥100 and <200)
COc1ncc(C2CCCC2)cc1CO[C@H]1[C@H](C(C)(C)C)[C@@H](C(=O)O)N(C(=O)C2CCCCC2)[C@H]1c1ccccc1 [Example 54, (2S,3R,4S,5S)-3-tert-butyl-1-(cyclohexanecarbonyl)-4-[(5-cyclopentyl-2-methoxypyridin-3-yl)methoxy]-5-phenylpyrrolidine-2-carboxylic acid]	< 1000	< 1000	+++ (≥350)	++ (≥100 and <200)
COc1ncc(C2CC3CCC2C3)cc1CO[C@H]1[C@H](C(C)(C)C)[C@@H](C(=O)O)N(C(=O)C2CCCCC2)[C@H]1c1ccccc1 (stereo partly drawn) [Example 55, (2S,3R,4S,5S)-4-{[5-(bicyclo[2.2.1]heptan-2-yl)-2-methoxypyridin-3-yl]methoxy}-3-tert-butyl-1-(cyclohexanecarbonyl)-5-phenylpyrrolidine-2-carboxylic acid]	1000 to 10000	1000 to 10000	+++ (≥350)	++ (≥100 and <200)
COc1ncc(C2CCC2)cc1CO[C@H]1[C@H](C(C)(C)C)[C@@H](C(=O)O)N(C(=O)C2CCCCC2)[C@H]1c1ccccc1F [Example 56, (2S,3R,4S,5S)-3-tert-butyl-4-[(5-cyclobutyl-2-methoxypyridin-3-yl)methoxy]-1-(cyclohexanecarbonyl)-5-(2-fluorophenyl)pyrrolidine-2-carboxylic acid]	< 1000	< 1000	+++ (≥350)	++ (≥100 and <200)
COc1ncc(C2CCCC2)cc1CO[C@H]1[C@H](C(C)(C)C)[C@@H](C(=O)O)N(C(=O)C2CCCCC2)[C@H]1c1ccccc1F [Example 57, (2S,3R,4S,5S)-3-tert-butyl-1-(cyclohexanecarbonyl)-4-[(5-cyclopentyl-2-methoxypyridin-3-yl)methoxy]-5-(2-fluorophenyl)pyrrolidine-2-carboxylic acid]	1000 to 10000	1000 to 10000	+++ (≥350)	++ (≥100 and <200)
COc1ncc(C2CC3CCC2C3)cc1CO[C@H]1[C@H](C(C)(C)C)[C@@H](C(=O)O)N(C(=O)C2CCCCC2)[C@H]1c1ccccc1F (stereo partly drawn) [Example 58, (2S,3R,4S,5S)-4-{[5-(bicyclo[2.2.1]heptan-2-yl)-2-methoxypyridin-3-yl]methoxy}-3-tert-butyl-1-(cyclohexanecarbonyl)-5-(2-fluorophenyl)pyrrolidine-2-carboxylic acid]	< 1000	< 1000	+++ (≥350)	++ (≥100 and <200)
COc1ncc(N2CCCC2)cc1CO[C@H]1[C@H](C(C)(C)C)[C@@H](C(=O)O)N(C(=O)C2CCCCC2)[C@H]1c1ccccc1F [Example 59, (2S,3R,4S,5S)-3-tert-butyl-1-(cyclohexanecarbonyl)-5-(2-fluorophenyl)-4-{[2-methoxy-5-(pyrrolidin-1-yl)pyridin-3-yl]methoxy}pyrrolidine-2-carboxylic acid]	1000 to 10000	1000 to 10000	++ (≥150 and <350)	+ (<100)
COc1ncc(C(C)(C)C)cc1CO[C@H]1[C@H](C(C)(C)C)[C@@H](C(=O)O)N(C(=O)C2CCCCC2)[C@H]1c1ccccc1 [Example 60, (2S,3R,4S,5S)-3-tert-butyl-4-[(5-tert-butyl-2-methoxypyridin-3-yl)methoxy]-1-(cyclohexanecarbonyl)-5-phenylpyrrolidine-2-carboxylic acid]	< 1000	< 1000	+++ (≥350)	++ (≥100 and <200)
COc1ncc(C(C)(C)C)cc1CO[C@H]1[C@H](C(C)(C)C)[C@@H](C(=O)O)N(C(=O)[C@@H]2CCC[C@@H](OC)C2)[C@H]1c1ccccc1 [Example 61, (2S,3R,4S,5S)-3-tert-butyl-4-[(5-tert-butyl-2-methoxypyridin-3-yl)methoxy]-1-[(1R,3R)-3-methoxycyclohexane-1-carbonyl]-5-phenylpyrrolidine-2-carboxylic acid]	< 1000	< 1000	+++ (≥350)	+++ (≥200)
COc1ncc(C(C)(C)C)cc1CO[C@H]1[C@H](C(C)(C)C)[C@@H](C(=O)O)N(C(=O)C2CCCCC2)[C@H]1c1ccccc1F [Example 62, (2S,3R,4S,5S)-3-tert-butyl-4-[(5-tert-butyl-2-methoxypyridin-3-yl)methoxy]-1-(cyclohexanecarbonyl)-5-(2-fluorophenyl)pyrrolidine-2-carboxylic acid]	< 1000	< 1000	+++ (≥350)	++ (≥100 and <200)
